The values below come from US20210087565A1, “ANTISENSE ANTIBIOTICS AND BACTERIAL SECRETION BASED DELIVERY SYSTEM TO ELIMINATE DRUG-RESISTANT BACTERIA” (priority 2018, published 2021).

In series [1] the test system is ESBL KPN. Kind of series: Potentiation of antibiotics with PNAs (Bliss Independence). The series is classed as cell-based, Klebsiella pneumoniae. Conditions: 10 μM PNA + 2 μg/mL tetracycline. The method, then: (§1) Combinatorial effects were evaluated using the Bliss Independence model where the S parameter defines a deviation from no interaction as is defined as: […]
(§2) Where ODAB is the OD at saturation time in only antibiotic, OD0 is the OD at saturation in no treatment, ODPNA is the OD at saturation in only antisense-PNA at 10 μM, and ODAB, PNA is the OD at saturation in a combination of antibiotic and antisense-PNA. Saturation time was determined as the time when the no treatment control reached its saturation growth phase. S>0 is a deviation towards synergy and S<0 is a deviation towards antagonism.

The subject of series [2] is MDR E. coli. Kind of series: PNA growth assay (optical density) on clinical isolate. It counts as cell-based, Escherichia coli. The method, then:
Bacterial Cell culture: The clinical isolates were obtained from the lab of Nancy Madinger at the University of Colorado Anschutz campus. Clinical isolates were grown in Cation Adjusted Mueller Hinton broth (CAMHB) (Becton, Dickinson and Company 212322) at 37° C. with 225 rpm shaking or on solid CAMHB with 1.5% agar at 37° C. Clinical isolates were maintained as freezer stocks in 90% CAMHB, 10% glycerol at −80° C. Freezer stocks were streaked out onto solid CAMHB and incubated for 16 h to produce single colonies prior to experiments. For each biological replicate, a single colony was picked from solid media and grown for 16 h in liquid CAMHB prior to experiments. Non-clinical isolates, such as E. coli MG1655 (ATCC700926) and Salmonella entorica serovar typhimurium SL1344, were cultured in liquid 2% lysogeny broth (LB) or on 2% LB with 1.5% agar for solid plates. S. typhimurium cultures were supplemented with 30 μg/mL streptomycin and SL1344 strains containing plasmids pFPV (SL1344-mCherry) or pRG1 modified with a lacIq promoter (SL1344-Holin) were supplemented with 100 μg/mL ampicillin. Freezer stocks were stored in 60% LB broth, 40% glycerol at −80° C. Freezer stocks were streaked out onto solid LB and incubated for 16 h to produce single colonies before experiments. For biological replicates, single colonies were started in liquid LB and grown for 16 hours prior to experiments. E. coli MG1655 PNA growth experiments were carried out in M9 media (1×M9 minimal media salts solution (MP Biomedicals), 2.0 mM MgSO4, and 0.1 mM CaCl2 in sterile water) with 0.4% glucose.
PNA growth assay: Biological replicates were diluted 1:10,000 into treatment condition in 384-well plates and measured for 24 h in a Tecan GENios at 562 nm with a bandwidth of 35 nm. Media absorbance blanks were subtracted from data prior to analysis. Normalized optical density (OD) data is shown normalized to the time point where the “no treatment” growth curves reached saturation phase which varied across biological replicates.

The subject of series [3] is NDM-1 KPN. Kind of series: Potentiation of antibiotics with PNAs (Bliss Independence). As to conditions: 10 μM PNA + 8 μg/mL meropenem, compared to meropenem monotherapy. The series is classed as cell-based, Klebsiella pneumoniae. On the procedure:
as §1, §2

Values joined by “and” are separate entries in the source; they are usually repeats but may differ in a detail not shown here. Equal entries are not always repeated.

In the case of “α-lexA: 12-mer antisense PNA cGGAATGAAAGC (SEQ ID NO. 17) targeting lexA, conjugated to (KFF)3K cell penetrating peptide via AEEA-linker (antisense CGGAATGAAAGC; all peptide nucleic acid (PNA); (KFF)3K cell-penetrating peptide attached via AEEA linker)”, in series [1], the “growth with combination therapy (in words)” value was “significant growth inhibition compared to each monotherapy”. Also, the “S-value (Bliss Independence model)” value in series [1] (S>0 indicates synergy) is “positive”.
With “α-rpsD: 12-mer antisense PNA AGAAAATGGCAA (SEQ ID NO. 19) targeting rpsD, conjugated to (KFF)3K cell penetrating peptide via AEEA-linker (all peptide nucleic acid (PNA); (KFF)3K cell-penetrating peptide attached via AEEA linker)”, in series [2], the “monotherapy effect (in words)” value is recorded as “effective in killing”. For the same substance, the growth inhibition in series [2] (10 μM PNA, optical density vs no treatment at 16 hours) was 98±0.7% and 98%. In addition, the “growth with combination therapy (in words)” value in series [3] is listed as “significantly reduced the growth”.
